Reference: patent US11160808B2, “Compounds that enhance Atoh1 expression” (Massachusetts Eye & Ear Infirmary, priority 2008, dated 2021)

What was measured:
[1] = system: Math1 enhancer and minimal promoter Luciferase reporter in HEK cells; assay: Math1 Luciferase reporter assay in HEK cells; format: cell-based, human; settings: for IC50 / maximal fold induction: Homo sapiens, HEK293; for IC50: read-out: IC50; for maximal fold induction: read-out: Maximum (Fold DMSO)
Text: A human embryonic kidney (HEK) cell line stably expressing a Luciferase gene controlled by an Math1 enhancer and minimal promoter was used in a high-throughput screen (HTS) of 144,000 small molecules to identify compounds that increase Math1 expression (i.e., transcription and/or translation). Such compounds can be used to increase the conversion of stem cells, progenitor cells, and support cells to or towards a hair cell. Screens to identify such compounds are described by Li et al., (U.S. Publication No. 2005/0287127) and Li et al., (U.S. application Ser. No. 11/953,797).
HEK cells stably expressing the Math1 Luciferase reporter were plated onto 384 well plates and cultured overnight in medium containing 10% fetal calf serum (FCS). Activation of the Math1 enhancer was measured by the increase in luminescence on a plate reader following addition of a luciferase detection agent. The assay was optimized for cell number, time of incubation, volume of medium, cell lysis reagent and luciferase reagent. Luminescence levels were compared in cells with the Math1-luciferase construct with and without retinoic acid (1 μM), and/or a luciferase construct with and without the Math1 enhancer and minimal promoter region.
To improve assay sensitivity, and reduce the coefficient of variation (CV), a more sensitive luciferase reagent (BriteLite luciferase reporter assay reagent, Perkin Elmer) was used, and Triton-X-100 was added to the lysis reagent to ensure complete lysis of the cells. Following these changes a CV of 4.2% was recorded. These conditions were used for all high-throughput screens. The luminescence threshold for a compound to be positive was defined as a 2-fold increase above the control (e.g., cells exposed to DMSO).
Cells were seeded on 384 well plates and allowed to attach overnight at 37° C. with 5% CO2 in the absence of growth factors. Math1 activation was measured by the increase in luminescence on a plate reader following addition of a luciferase detection reagent. Luminescence was assessed at 24, 48, and 72 hours. These conditions were used to screen 144,000 compounds contained in the small molecule libraries at Harvard University's Laboratory for Drug Discovery in Neurodegeneration (LDDN).
HTS were performed using HEK-Math1 cells seeded in 384 well plates. One compound was added per well using pin transfer. The final concentration of each compound was […]. Cell were incubated in the presence of a compound for 48 hours at 37° C. with 5% CO2. Cell lysates then were collected and bioluminescence determined. Luminescence values were compared normalized against DMSO.
About 20000 compounds were screened per week in 50 plates of 384 well with the aid of robotic systems (Beckman Biomek FX). Compounds were screened at an average final concentration of 0.7 μM (in 0.04% DMSO) with each plate containing 16 wells of 1 μM retinoic acid, as a positive control, and 16 wells of 0.04% DMSO, as a vehicle control. Percent activation of luminescence in the test compounds was determined for cells treated with the compounds against cells treated with DMSO.
Ten compounds, randomly selected from the group of 110 compounds identified in Example 2, were further evaluated, as follows. HEK cells were plated on 96 well plates at a density of 100000 cells per well. One day after plating, 0.1, 1, and 5 μM of each positive compound was added per well in a 10% fetal bovine serum (FBS) DMEM solution. Cells were then lysed 48 hours after addition of the compound and Math1 expression was analyzed using a luciferase reporter assay, as described above, and real-time PCR.
The half maximal inhibitory concentration (IC50) and median lethal dose or Lethal Dose, 50% (LD50) were determined for each of the compounds identified in Example 2 using standard laboratory techniques. IC50 is a measure of the effectiveness of a compound in inhibiting biological or biochemical function. LD50 is the amount of a compound required to kill half the members of a tested population.

[2] = LD50 (median lethal dose) determination; format: cell-based
Text: IC50 is a measure of the effectiveness of a compound in inhibiting biological or biochemical function. LD50 is the amount of a compound required to kill half the members of a tested population.

Row | Compound | IC50 [1] [nM] | maximal fold induction [1] | LD50 [2] [µM] | increase in luciferase activity ([1]; 1 μM, compared to non-treated cells) [fold]
1 | COc1cccc2c1OCC(C(=O)Nc1ccc(Cl)cc1Cl)=C2 [CP-0000928, N-(2,4-dichlorophenyl)-8-methoxy-2H-chromene-3-carboxamide] | 300 | 2 | >10 | –
2 | COc1ccccc1N1CCN(c2ccc3ccccc3n2)CC1 [CP-0087799, 2-(4-(2-methoxyphenyl)piperazin-1-yl)quinoline] | 1000 | 2.1 | >10 | –
3 | O=C(Cn1nnc2ccccc21)NC1Cc2ccccc2C1 [CP-0009883, 2-(1H-benzo[d][1,2,3]triazol-1-yl)-N-(2,3-dihydro-1H-inden-2-yl)acetamide] | 2500 | 2.3 | >10 | –
4 | Nc1nc(-c2ccc(-c3ccccc3)cc2)cs1 [CP-0072036, 4-(biphenyl-4-yl) thiazol-2-amine] | 1500 | 1.7 | >10 | –
5 | COc1cc(C)c2c(=O)cc(-c3ccccc3)oc2c1 [CP-0096433, 7-methoxy-5-methyl-2-phenyl-4H-chromen-4-one] | 3000 | 2 | >10 | –
6 | O=C(NNC(=S)Nc1ccc(F)cc1)c1ccccc1Cl [CP-0005186, 2-(2-chlorobenzoyl)-N-(4-fluorophenyl)hydrazine-carbothioamide] | 1000 | 1.8 | >10 | –
7 | O=C(Nc1ccccc1Cl)C(=O)c1c[nH]c2ccccc12 [CP-0078448, N-(2-chlorophenyl)-2-(1H-indol-3-yl)-2-oxoacetamide] | > 10000 | 1.9 | >10 | –
8 | Cn1c(CCc2ccc(N)cc2)nc2ccccc21 [CP-0066829, 4-(2-(1-methyl-1H-benzo[d]imidazol-2-yl)ethyl)aniline] | 1000 | 1.8 | >10 | –
9 | O=C(NCCOc1ccc(F)cc1)c1cccs1 [CP-0072271, N-(2-(4-fluorophenoxy)ethyl)thio-phene-2-carboxamide] | 1000 | 2.2 | >10 | –
10 | O=C(Nc1ccc(Cl)cn1)c1ccc(Br)cc1 [CP-0060729, 4-bromo-N-(5-chloropyridin-2-yl)benzamide] | 200 | 1.6 | >10 | –
11 | O=C(NCC1CCCO1)c1sc2ccccc2c1Cl (stereo not shown) [CP-0068577, 3-chloro-N-((tetrahydrofuran-2-yl)methyl)benzo[b]thio-phene-2-carboxamide] | 1000 | 1.6 | >10 | –
12 | Cc1cc(C(=O)Nc2ccccc2)c(C)n1Cc1cccs1 [CP-0104766, 2,5-dimethyl-N-phenyl-1-(thiophen-2-ylmethyl)-1H-pyrrole-3-carboxamide] | 3000 | 3 | >10 | –
13 | Cc1cccc(NC(=O)c2ccc3c(c2)OCCO3)n1 [CP-0029278, N-(6-methylpyridin-2-yl)-2,3-dihydrobenzo [b][1,4]dioxine-6-carboxamide] | 500 | 1.9 | >10 | –
14 | COc1cccc(Nc2ncnc3[nH]cnc23)c1 [CP-0072720, N-(3-methoxyphenyl)-9H-purin-6-amine] | 3000 | 1.8 | >10 | –
15 | CCn1ccc(C(=O)Nc2cc(Cl)ccc2Cl)n1 [CP-0070844, N-(2,5-dichlorophenyl)-1-ethyl-1H-pyrazole-3-carboxamide] | 2000 | 1.7 | >10 | –
16 | O=C(Nc1ccc(Cl)cn1)c1sc2ccccc2c1Cl [CP-0064314, 3-chloro-N-(5-chloropyridin-2-yl)benzo[b]thiophene-2-carboxamide] | > 10000 | 1.7 | >10 | –

Row | Compound | IC50 [1] [nM] | maximal fold induction [1] | LD50 [2] [µM] | increase in luciferase activity ([1]; 1 μM, compared to non-treated cells) [fold]
17 | Cc1oc(C(C)(C)C)cc1-c1cc(NC(=O)c2ccccc2)[nH]n1 [CP-0104765, N-(3-(5-tert-butyl-2-methylfuran-3-yl)-1H-pyrazol-5-yl)benzamide] | 400 | 2 | >10 | –
18 | Cc1ccc(CSc2nc3ncccc3o2)cc1 [CP-0130586, 2-(4-methylbenzylthio) oxazolo[4,5-b]pyridine] | 500 | 2.2 | >10 | –
19 | O=C(NCCSc1ccccc1)c1cncc(Br)c1 [CP-0089966, 5-bromo-N-(2-(phenylthio)ethyl) nicotinamide] | > 10000 | 2.2 | >10 | –
20 | COc1ccc(-c2cc(-c3ccccc3)[nH]n2)c(O)c1 [CP-0064231, 5-methoxy-2-(5-phenyl-1H-pyrazol-3-yl)phenol] | 1000 | 1.5 | >10 | –
21 | CC(C)(C)c1ccc(C(=O)NCC2CCCO2)cc1 (stereo not shown) [CP-0061566, 4-tert-butyl-N-((tetrahydrofuran-2-yl)methyl)benzamide] | 200 | 2 | >10 | –
22 | COc1ccc(-c2cn3ccsc3n2)cc1 [CP-0061401, 6-(4-methoxyphenyl) imidazo[2,1-b]thiazole] | 600 | 1.8 | >10 | –
23 | Cc1cccc(-c2ccc3ccccc3n2)c1 [CP-0072092, 2-m-tolylquinoline] | 1000 | 1.7 | >10 | –
24 | CN(C)c1ccc(C2NN=C(c3ccc(Cl)cc3)N2)cc1 (stereo not shown) [CP-0007994, 4-(3-(4-chlorophenyl)-4,5-dihydro-1H-1,2,4-triazol-5-yl)-N,N-dimethylaniline] | 1000 | 1.9 | >10 | –
25 | COCCNc1ncc(-c2ccc(C)cc2)cn1 [CP-0059547, N-(2-methoxyethyl)-5-p-tolylpyrimidin-2-amine] | 1000 | 2 | >10 | –
26 | c1ccc(OCc2nc(-c3ccccn3)no2)cc1 [CP-0068395, 5-(phenoxymethyl)-3-(pyridin-2-yl)-1,2,4-oxadiazole] | 3000 | 1.6 | >10 | –
27 | COc1ccc(-c2nc3ccc(Cl)cc3n2OCc2cc(C)cc(C)c2)cc1 [CP-0000554, 6-chloro-1-(3,5-dimethylbenzyloxy)-2-(4-methoxyphenyl)-1H-benzo[d]imidazole] | 400 | 2 | >30 | –
28 | O=C(c1cc(-c2ccc(Br)cc2)on1)N1CCOCC1 [CP-0075627, (5-(4-bromophenyl)isoxazol-3-yl)(morpholino)methanone] | 8000 | 2 | >10 | –
29 | COc1ccc(-c2csc(Nc3ncccc3C)n2)cc1 [CP-0071862, 4-(4-methoxyphenyl)-N-(3-methylpyridin-2-yl)thiazol-2-amine] | 700 | 1.8 | >10 | –
30 | Brc1ccc(-c2nc(-c3cccnc3)no2)cc1 [CP-0070367, 5-(4-bromophenyl)-3-(pyridin-3-yl)-1,2,4-oxadiazole] | 2000 | 1.7 | >10 | –
31 | O=c1ccc2ccc(OCc3ccc(F)cc3)cc2o1 [CP-0063508, 7-(4-fluorobenzyloxy)-2H-chromen-2-one] | > 10000 | 1.7 | >10 | –
32 | CC1=C(/C=C/C(C)=C/C=C/C(C)=C/C(=O)O)C(C)(C)CCC1 [retinoic acid, reference compound] | – | – | – | 1.8
